Measurements: patent US8247211B2, “Glycopeptide antibiotics” (American Cyanamid Company, priority 2001, dated 2012)
Values after ≈ are worked out from the molar mass of the structure shown.

Assays:
Experiment in all cases: In vitro antibacterial evaluation: minimum inhibitory concentration (MIC), broth dilution method
Type in all cases: cell-based
Conditions in all cases: broth dilution, 18 hours at 35° C.
Enterococcus sp. = test system: Enterococcus sp.
Outline: (§1)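 MIC by broth dilution in Mueller-Hinton II medium following NCCLS M7-A2. Inoculum was 5×10^5 CFU/mL and antibiotic was tested over 64-0.06 μg/mL. Gram-positive panel included clinical isolates resistant to methicillin, penicillin and/or vancomycin.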

Staphylococcus sp. = test system: Staphylococcus sp.
Outline: as §1

Streptococcus sp. = test system: Streptococcus sp.
Outline: as §1

Escherichia coli = test system: Escherichia coli
[1] = Enterococcus faecalis (ATCC 29212)
[2] = Enterococcus faecalis (GC 2242)
[3] = Enterococcus faecalis (GC 2691)
[4] = Enterococcus faecalis (GC 3059)
[5] = Enterococcus faecalis (GC 4552)
[6] = Enterococcus faecalis (GC 4553)
[7] = Enterococcus faecalis (GC 4554)
[8] = Enterococcus faecalis (GC 6189)
[9] = Streptococcus agalactiae (GC 4564)
[10] = Streptococcus pneumoniae (ATCC 6301)
[11] = Streptococcus pneumoniae (GC 1894)
[12] = Streptococcus pneumoniae (GC 4565)
[13] = Streptococcus pyogenes (GC 4563)

CC(c1ccccc1)C1NC(=O)CNC(=O)C(CO)NC(=O)C(C(O)C2CNC(=N)N2C2OC(CO)C(O)C(O)C2O)NC(=O)C(C(O)C2CNC(=N)N2)NC(=O)C(Cc2ccc3oc(-c4cccc(F)c4)nc3c2)NC1=O (stereo not drawn) [Example 30, Cyclo[3-[2-(3-fluorophenyl)-1,3-benzoxazol-5-yl]alanyl-3-(2-iminoimidazolidin-4-yl)seryl-3-(3-hexopyranosyl-2-iminoimidazolidin-4-yl)serylserylglycyl-β-methylphenylalanyl]]
MIC Enterococcus avium (GC 4558) (Enterococcus sp.; Enterococcus avium (GC 4558)): 16 µg/mL (≈ 14.7 µM) | MIC Enterococcus faecalis (ATCC 29212) (Enterococcus sp.; [1]): 64 µg/mL (≈ 58.7 µM) | MIC Enterococcus faecalis (GC 2242) (Enterococcus sp.; [2]): 32 µg/mL (≈ 29.4 µM) | MIC Enterococcus faecalis (GC 2691) (Enterococcus sp.; [3]): 32 µg/mL (≈ 29.4 µM) | MIC Enterococcus faecalis (GC 3059) (Enterococcus sp.; [4]): 64 µg/mL (≈ 58.7 µM) | MIC Enterococcus faecalis (GC 4552) (Enterococcus sp.; [5]): 64 µg/mL (≈ 58.7 µM) | MIC Enterococcus faecalis (GC 4553) (Enterococcus sp.; [6]): 16 µg/mL (≈ 14.7 µM) | MIC Enterococcus faecalis (GC 4554) (Enterococcus sp.; [7]): 64 µg/mL (≈ 58.7 µM) | MIC Enterococcus faecalis (GC 6189) (Enterococcus sp.; [8]): 32 µg/mL (≈ 29.4 µM) | MIC Enterococcus faecium (GC 2243) (Enterococcus sp.; Enterococcus faecium (GC 2243)): 32 µg/mL (≈ 29.4 µM) | MIC Enterococcus faecium (GC 4556) (Enterococcus sp.; Enterococcus faecium (GC 4556)): 64 µg/mL (≈ 58.7 µM) | MIC Enterococcus faecium (GC 4557) (Enterococcus sp.; Enterococcus faecium (GC 4557)): 8 µg/mL (≈ 7.34 µM) | MIC Enterococcus avium (GC 4558) (Enterococcus sp.): 16 µg/mL (≈ 14.7 µM) | MIC Enterococcus faecalis (ATCC 29212) (Enterococcus sp.): 64 µg/mL (≈ 58.7 µM) | MIC Enterococcus faecalis (GC 2242) (Enterococcus sp.): 32 µg/mL (≈ 29.4 µM) | MIC Enterococcus faecalis (GC 2691) (Enterococcus sp.): 32 µg/mL (≈ 29.4 µM) | MIC Enterococcus faecalis (GC 3059) (Enterococcus sp.): 64 µg/mL (≈ 58.7 µM) | MIC Enterococcus faecalis (GC 4552) (Enterococcus sp.): 64 µg/mL (≈ 58.7 µM) | MIC Enterococcus faecalis (GC 4553) (Enterococcus sp.): 16 µg/mL (≈ 14.7 µM) | MIC Enterococcus faecalis (GC 4554) (Enterococcus sp.): 64 µg/mL (≈ 58.7 µM) | MIC Enterococcus faecalis (GC 6189) (Enterococcus sp.): 32 µg/mL (≈ 29.4 µM) | MIC Enterococcus faecium (GC 2243) (Enterococcus sp.): 32 µg/mL (≈ 29.4 µM) | MIC Enterococcus faecium (GC 4556) (Enterococcus sp.): 64 µg/mL (≈ 58.7 µM) | MIC Enterococcus faecium (GC 4557) (Enterococcus sp.): 8 µg/mL (≈ 7.34 µM) | MIC Staphylococcus aureus-SMITH (GC 4543) (Staphylococcus sp.; strain GC 4543): 8 µg/mL (≈ 7.34 µM) | MIC Staphylococcus haemolyticus (GC 4546) (Staphylococcus sp.; strain GC 4546): 4 µg/mL (≈ 3.67 µM) | MIC Coagulase Negative Staphylococcus (GC 4547) (Staphylococcus sp.; strain GC 4547): 8 µg/mL (≈ 7.34 µM) | MIC Coagulase Negative Staphylococcus (GC 4548) (Staphylococcus sp.; strain GC 4548): 4 µg/mL (≈ 3.67 µM) | MIC Coagulase Negative Staphylococcus (GC 4549) (Staphylococcus sp.; strain GC 4549): 16 µg/mL (≈ 14.7 µM) | MIC Coagulase Negative Staphylococcus (GC 4551) (Staphylococcus sp.; strain GC 4551): 8 µg/mL (≈ 7.34 µM) | MIC Coagulase Negative Staphylococcus (GC 6257) (Staphylococcus sp.; strain GC 6257): 4 µg/mL (≈ 3.67 µM) | MIC Staphylococcus aureus-SMITH (GC 4543) (Staphylococcus sp.; strain SMITH GC 4543): 8 µg/mL (≈ 7.34 µM) | MIC Streptococcus agalactiae (GC 4564) (Streptococcus sp.; [9]): 8 µg/mL (≈ 7.34 µM) | MIC Streptococcus pneumoniae (ATCC 6301) (Streptococcus sp.; [10]): 8 µg/mL (≈ 7.34 µM) | MIC Streptococcus pneumoniae (GC 1894) (Streptococcus sp.; [11]): 16 µg/mL (≈ 14.7 µM) | MIC Streptococcus pneumoniae (GC 4565) (Streptococcus sp.; [12]): 16 µg/mL (≈ 14.7 µM) | MIC Streptococcus pyogenes (GC 4563) (Streptococcus sp.; [13]): 4 µg/mL (≈ 3.67 µM) | MIC Streptococcus agalactiae (GC 4564) (Streptococcus sp.): 8 µg/mL (≈ 7.34 µM) | MIC Streptococcus pneumoniae (ATCC 6301) (Streptococcus sp.): 8 µg/mL (≈ 7.34 µM) | MIC Streptococcus pneumoniae (GC 1894) (Streptococcus sp.): 16 µg/mL (≈ 14.7 µM) | MIC Streptococcus pneumoniae (GC 4565) (Streptococcus sp.): 16 µg/mL (≈ 14.7 µM) | MIC Streptococcus pyogenes (GC 4563) (Streptococcus sp.): 4 µg/mL (≈ 3.67 µM) | MIC Escherichia coli (ATCC 25922) (Escherichia coli): 32 µg/mL (≈ 29.4 µM) | MIC Escherichia coli (GC 4559) (Escherichia coli): 32 µg/mL (≈ 29.4 µM) | MIC Escherichia coli (GC 4560) (Escherichia coli): 8 µg/mL (≈ 7.34 µM)

CC(c1ccccc1)C1NC(=O)CNC(=O)C(CO)NC(=O)C(C(O)C2CNC(=N)N2C2OC(CO)C(O)C(O)C2O)NC(=O)C(C(O)C2CNC(=N)N2)NC(=O)C(Cc2ccc3oc(-c4ccc(Br)cc4)nc3c2)NC1=O (stereo not drawn) [Example 27, Cyclo[3-[2-(4-bromaphenyl)-1,3-benzoxazol-5-yl]alanyl-3-(2-iminoimidazolidin-4-yl)seryl-3-(3-hexopyranosyl-2-iminoimidazolidin-4-yl)serylserylglycyl-β-methylphenylalanyl]]
MIC Enterococcus avium (GC 4558) (Enterococcus sp.; Enterococcus avium (GC 4558)): 16 µg/mL (≈ 13.9 µM) | MIC Enterococcus faecalis (ATCC 29212) (Enterococcus sp.; [1]): 32 µg/mL (≈ 27.8 µM) | MIC Enterococcus faecalis (GC 2242) (Enterococcus sp.; [2]): 32 µg/mL (≈ 27.8 µM) | MIC Enterococcus faecalis (GC 2691) (Enterococcus sp.; [3]): 32 µg/mL (≈ 27.8 µM) | MIC Enterococcus faecalis (GC 3059) (Enterococcus sp.; [4]): 32 µg/mL (≈ 27.8 µM) | MIC Enterococcus faecalis (GC 4552) (Enterococcus sp.; [5]): 64 µg/mL (≈ 55.6 µM) | MIC Enterococcus faecalis (GC 4553) (Enterococcus sp.; [6]): 16 µg/mL (≈ 13.9 µM) | MIC Enterococcus faecalis (GC 4554) (Enterococcus sp.; [7]): 32 µg/mL (≈ 27.8 µM) | MIC Enterococcus faecalis (GC 6189) (Enterococcus sp.; [8]): 32 µg/mL (≈ 27.8 µM) | MIC Enterococcus faecium (GC 2243) (Enterococcus sp.; Enterococcus faecium (GC 2243)): 32 µg/mL (≈ 27.8 µM) | MIC Enterococcus faecium (GC 4556) (Enterococcus sp.; Enterococcus faecium (GC 4556)): 64 µg/mL (≈ 55.6 µM) | MIC Enterococcus faecium (GC 4557) (Enterococcus sp.; Enterococcus faecium (GC 4557)): 8 µg/mL (≈ 6.95 µM) | MIC Enterococcus avium (GC 4558) (Enterococcus sp.): 16 µg/mL (≈ 13.9 µM) | MIC Enterococcus faecalis (ATCC 29212) (Enterococcus sp.): 32 µg/mL (≈ 27.8 µM) | MIC Enterococcus faecalis (GC 2242) (Enterococcus sp.): 32 µg/mL (≈ 27.8 µM) | MIC Enterococcus faecalis (GC 2691) (Enterococcus sp.): 32 µg/mL (≈ 27.8 µM) | MIC Enterococcus faecalis (GC 3059) (Enterococcus sp.): 32 µg/mL (≈ 27.8 µM) | MIC Enterococcus faecalis (GC 4552) (Enterococcus sp.): 64 µg/mL (≈ 55.6 µM) | MIC Enterococcus faecalis (GC 4553) (Enterococcus sp.): 16 µg/mL (≈ 13.9 µM) | MIC Enterococcus faecalis (GC 4554) (Enterococcus sp.): 32 µg/mL (≈ 27.8 µM) | MIC Enterococcus faecalis (GC 6189) (Enterococcus sp.): 32 µg/mL (≈ 27.8 µM) | MIC Enterococcus faecium (GC 2243) (Enterococcus sp.): 32 µg/mL (≈ 27.8 µM) | MIC Enterococcus faecium (GC 4556) (Enterococcus sp.): 64 µg/mL (≈ 55.6 µM) | MIC Enterococcus faecium (GC 4557) (Enterococcus sp.): 8 µg/mL (≈ 6.95 µM) | MIC Staphylococcus aureus-SMITH (GC 4543) (Staphylococcus sp.; strain SMITH GC 4543): 8 µg/mL (≈ 6.95 µM) | MIC Streptococcus agalactiae (GC 4564) (Streptococcus sp.; [9]): 32 µg/mL (≈ 27.8 µM) | MIC Streptococcus pneumoniae (ATCC 6301) (Streptococcus sp.; [10]): 16 µg/mL (≈ 13.9 µM) | MIC Streptococcus pneumoniae (GC 1894) (Streptococcus sp.; [11]): 32 µg/mL (≈ 27.8 µM) | MIC Streptococcus pneumoniae (GC 4565) (Streptococcus sp.; [12]): 16 µg/mL (≈ 13.9 µM) | MIC Streptococcus pyogenes (GC 4563) (Streptococcus sp.; [13]): 8 µg/mL (≈ 6.95 µM) | MIC Streptococcus agalactiae (GC 4564) (Streptococcus sp.): 32 µg/mL (≈ 27.8 µM) | MIC Streptococcus pneumoniae (ATCC 6301) (Streptococcus sp.): 16 µg/mL (≈ 13.9 µM) | MIC Streptococcus pneumoniae (GC 1894) (Streptococcus sp.): 32 µg/mL (≈ 27.8 µM) | MIC Streptococcus pneumoniae (GC 4565) (Streptococcus sp.): 16 µg/mL (≈ 13.9 µM) | MIC Streptococcus pyogenes (GC 4563) (Streptococcus sp.): 8 µg/mL (≈ 6.95 µM) | MIC Escherichia coli (ATCC 25922) (Escherichia coli): 32 µg/mL (≈ 27.8 µM) | MIC Escherichia coli (GC 4559) (Escherichia coli): 32 µg/mL (≈ 27.8 µM) | MIC Escherichia coli (GC 4560) (Escherichia coli): 8 µg/mL (≈ 6.95 µM)
